System: Lichen Ruber Planus
Experiment: Case study: patient with Lichen ruber planus
Type: in vivo, human
Details: Patient 4; several years, orally and by injection to local inflammation areas
Procedure: During the last five years reports have been received from patients taking the commercial dietary supplement capsules of the algal meal of Haematococcus pluvialis, Astaxin®, containing 4 mg astaxanthin. The daily doses recommended as an antioxidant is one capsule per day.
Patient 4. […] The symptoms of the disease were inter alia open wounds which had not healed […] had been treated with anti-inflammatory agents, such as cortisone, for several years, orally and also by injection directly to the local inflammation areas. […] They started to take 4 capsules of Astaxin per day, and after some weeks visible alleviation of the symptoms started to show up. […] During this period, the patient […] phased out the cortisone treatment. The dose of Astaxin was lowered to 2 capsules per day when they were asymtomatic. However, the symptoms returned in connection with a common cold.

With `C[C@]12CCC(=O)C=C1CC[C@@H]1[C@@H]2C(=O)C[C@@]2(C)[C@H]1CC[C@]2(O)C(=O)CO` [cortisone] the “result of previous anti-inflammatory treatment” value was “has not led to any result”.
